Assay results: patent US20100210635A1, “RENIN INHIBITORS” (Takeda Pharmaceutical Company Limited, priority 2006, published 2010)
pIC50: −log10 of the molar value.

target: T1, Recombinant human renin (Homo sapiens, UniProt P00797); test: In vitro enzymatic activity assay of Renin inhibitors (fluorescence, QXL520/HiLyteFluo488 peptide substrate); assay type: biochemical; details: not given
T1 construct: isolate the active form (residues 67-406); made in house; host or cells: FreeStyle 293-F cells (transient expression of pcDNA3.1(+)/hREN)
T1 sequence (P00797 67-406): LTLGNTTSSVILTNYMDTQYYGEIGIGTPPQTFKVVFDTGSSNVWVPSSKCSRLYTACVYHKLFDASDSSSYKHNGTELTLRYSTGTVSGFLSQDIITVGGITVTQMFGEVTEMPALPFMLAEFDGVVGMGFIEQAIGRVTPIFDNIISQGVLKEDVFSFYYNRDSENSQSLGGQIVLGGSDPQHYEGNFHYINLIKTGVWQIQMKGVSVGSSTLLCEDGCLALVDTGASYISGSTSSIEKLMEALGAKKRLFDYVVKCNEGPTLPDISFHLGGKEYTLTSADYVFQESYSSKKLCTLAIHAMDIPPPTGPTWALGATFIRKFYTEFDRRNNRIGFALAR
From the text: Test compounds in varying concentrations may be reacted with recombinant human renin in the presence of substrate, e.g., QXL520-γ-Abu-Ile-His-Pro-Phe-His-Leu-Val-Ile-His-Thr-Lys (HiLyteFluo488)-Arg-OH (Anaspec, San Jose, Calif.). The reaction can be followed kinetically using fluorescence (excitation λ=485 nm; emission λ=538 nm). Inhibition constants (IC50) may be calculated by non-linear curve fitting of the compound concentrations and fluorescence intensities to the standard IC50 equation.
Solutions of test compounds in varying concentrations (<2 mM final concentration) are prepared in dimethyl sulfoxide (DMSO) and then diluted into assay buffer comprising 50 mM Hepes, 1 mM EDTA, 1 mM DTT, 0.1 mg/ml BSA, 0.01% Brij35, pH 7.4. Alternatively, the assay can be performed with a high BSA concentration, wherein the buffer contains an additional 2% BSA.
Recombinant human renin (3 nM final concentration) is added to the dilutions and pre-incubated with the compounds for 10 minutes at 37° C. As described in Examples A-C above, human Renin can be obtained by expressing preprorenin (residue 1-406) in mammalian cells, treating the prorenin (residues 24-406) contained in the culture supernatant with trypsin, and isolate the active form (residues 67-406). After pre-incubation, the reaction is initiated with 1 μM of substrate QXL520-γ-Abu-Ile-His-Pro-Phe-His-Leu-Val-Ile-His-Thr-Lys (HiLyteFluo488)-Arg-OH (Anaspec, San Jose, Calif.). The final DMSO in the assay is 5%. The total volume of the reaction mixture is 20 μL, which can be placed on Greiner 384-well small volume plates.
Renin activity may be determined via fluorescence (excitation λ=485 nm; emission λ=538 nm), e.g., on a Molecular Devices SPECTROmax GEMINI XPS. The fluorescence intensity is determined upon the addition of substrate and determined again after incubation at 37° C. for one hour. The fluorescence intensity of a blank (no inhibition) using vehicle alone is also determined. Renin activity is linearly proportional to the change in fluorescence observed (final−initial).
The percent inhibition of Renin at a given compound concentration is defined as:
100%×[1−(Fcompound/Fblank)]
where Fcompound is the observed fluorescence at a given concentration of test compound and Fblank is the observed fluorescence in the presence of vehicle alone.
The pIC50 value (negative log of the molar concentration of the compound that produces 50% inhibition) of a test compound is calculated by non-linear least squares curve fitting of the equation: […]
to percent inhibition versus compound concentration. The 50% inhibitory concentration (IC50) of a test compound is calculated by raising 10 to the negative pIC50 (10^−pIC50).

Row | SMILES | pIC50
1 | CN1CCN(C(=O)Oc2ccc(C[C@@H]3CNCCN3C(=O)CCc3ccccc3Oc3ccccc3)cc2)CC1 [Example 72, (R)-4-((1-(3-(2-phenoxyphenyl)propanoyl)piperazin-2-yl)methyl)-phenyl 4-methylpiperazine-1-carboxylate] | 5.30 to 6.30

same assay, conditions: recombinant human renin 3 nM, 1 μM substrate, 37° C., pH 7.4; values given as ranges; read-out: IC50 of Exemplified Compounds Against Renin

Row | SMILES | pIC50
2 | O=C(CC(Cc1ccccc1)c1ccco1)N1CCNC[C@H]1Cc1ccccc1 (stereo partly drawn) [Example 16, 1-((R)-2-Benzylpiperazin-1-yl)-3-(furan-2-yl)-4-phenylbutan-1-one] | 5.30 to 6.30
3 | O=C(CCCc1ccccc1)N1CCNC[C@H]1Cc1ccccc1 [Example 19, (R)-1-(2-Benzylpiperazin-1-yl)-4-phenylbutan-1-one] | 4.30 to 5.30
4 | O=C(NC(c1ccccc1)c1ccccc1)N1CCNC[C@H]1Cc1ccccc1 [Example 10, (R)—N-Benzhydryl-2-benzylpiperazine-1-carboxamide] | < 4.30
5 | COc1ccccc1OCC(=O)N1CCNC[C@H]1Cc1ccccc1 [Example 57, (R)-1-(2-benzylpiperazin-1-yl)-2-(2-methoxyphenoxy)ethanone] | < 4.30
6 | O=S(=O)(CC(c1ccccc1)c1ccccc1)N1CCNC[C@H]1Cc1ccccc1 [Example 13, (R)-2-Benzyl-1-(2,2-diphenylethylsulfonyl)piperazine] | 5.30 to 6.30
7 | O=C(Cc1ccccc1-c1ccccc1Cl)N1CCNC[C@H]1Cc1ccccc1 [Example 11, 1-((R)-2-Benzylpiperazin-1-yl)-2-(2′-chlorobiphenyl-2-yl)ethanone] | 5.30 to 6.30
8 | CCOc1cccc(Oc2ccccc2CCC(=O)N2CCNC[C@H]2Cc2ccccc2)c1 [Example 32, (R)-1-(2-Benzylpiperazin-1-yl)-3-(2-(3-ethoxyphenoxy)phenyl)propan-1-one] | 5.30 to 6.30
9 | CC(=O)NCc1ccc(C)nc1Oc1ccc(C)cc1CCC(=O)N1CCNC[C@H]1Cc1ccccc1 [Example 42, (R)—N-((2-(2-(3-(2-benzylpiperazin-1-yl)-3-oxopropyl)-4-methylphenoxy)-6-methylpyridin-3-yl)methyl)acetamide] | 5.30 to 6.30
10 | O=S(=O)(CCc1ccccc1)N1CCNC[C@H]1Cc1ccccc1 [Example 12, (R)-2-Benzyl-1-(phenethylsulfonyl)piperazine] | 4.30 to 5.30
11 | O=C(CSC(c1ccccc1)c1ccccc1)N1CCNC[C@H]1Cc1ccccc1 [Example 65, (R)-2-(benzhydrylthio)-1-(2-benzylpiperazin-1-yl)ethanone] | 5.30 to 6.30
12 | O=C(CCc1ccccc1Oc1cccc(CO)c1)N1CCNC[C@H]1Cc1ccccc1 [Example 35, (R)-1-(2-Benzylpiperazin-1-yl)-3-(2-(3-(hydroxymethyl)phenoxy)phenyl)propan-1-one] | 5.30 to 6.30
13 | CC(=O)NCc1cccnc1Oc1ccccc1CCC(=O)N1CCNC[C@H]1Cc1ccccc1 [Example 38, (R)—N-((2-(2-(3-(2-benzylpiperazin-1-yl)-3-oxopropyl)phenoxy)-pyridin-3-yl)methyl)acetamide] | 5.30 to 6.30
14 | COCCOCCCOc1ccccc1CCC(=O)N1CCNC[C@H]1Cc1ccccc1 [Example 77, (R)-1-(2-benzylpiperazin-1-yl)-3-(2-(3-(2-methoxyethoxy)propoxy)phenyl)propan-1-one] | 5.30 to 6.30
15 | Cc1nc(-c2ccc(Cl)cc2)c(CCC(=O)N2CCNC[C@H]2Cc2ccccc2)o1 [Example 54, (R)-1-(2-benzylpiperazin-1-yl)-3-(4-(4-chlorophenyl)-2-methyloxazol-5-yl)propan-1-one] | 4.30 to 5.30
16 | COc1ccc(Oc2ccccc2CCC(=O)N2CCNC[C@H]2Cc2ccccc2)cc1 [Example 51, (R)-1-(2-benzylpiperazin-1-yl)-3-(2-(4-methoxyphenoxy)-phenyl)propan-1-one] | 5.30 to 6.30
17 | O=C(CCc1ccccc1OCCCO)N1CCNC[C@H]1Cc1ccccc1 [Example 76, (R)-1-(2-benzylpiperazin-1-yl)-3-(2-(3-hydroxypropoxy)phenyl)-propan-1-one] | 5.30 to 6.30
18 | COCCCOc1ccccc1CCC(=O)N1CCNC[C@H]1Cc1ccccc1 [Example 75, (R)-1-(2-benzylpiperazin-1-yl)-3-(2-(3-methoxypropoxy)phenyl)-propan-1-one] | 5.30 to 6.30
19 | COc1cc(CCC(=O)N2CCNC[C@H]2Cc2ccccc2)ccc1OC(C)=O [Example 59, (R)-4-(3-(2-benzylpiperazin-1-yl)-3-oxopropyl)-2-methoxyphenyl acetate] | < 4.30
20 | O=C(CCc1ccccc1)N1CCNC[C@H]1Cc1ccccc1 [Example 1, (R)-1-(2-Benzylpiperazin-1-yl)-3-phenylpropan-1-one] | 4.30 to 5.30
21 | O=C(CCc1nc2ccccc2oc1=O)N1CCNC[C@H]1Cc1ccccc1 [Example 55, (R)-3-(3-(2-benzylpiperazin-1-yl)-3-oxopropyl)-2H-benzo[b][1,4]-oxazin-2-one] | 4.30 to 5.30

Other lines, results leading:

Row | pIC50 | SMILES
22 | > 6.30 | CC(=O)NCc1cc(C)ccc1Oc1cc(C)ccc1CCC(=O)N1CCNC[C@H]1Cc1ccccc1 [Example 46, (R)—N-(2-(2-(3-(2-benzylpiperazin-1-yl)-3-oxopropyl)-5-methylphenoxy)-5-methylbenzyl)acetamide]
23 | > 6.30 | CC(=O)NCCc1ccccc1Cc1ccccc1CCC(=O)N1CCNC[C@H]1Cc1ccccc1 [Example 84, (R)—N-(2-(2-(3-(2-benzylpiperazin-1-yl)-3-oxopropyl)benzyl)phenethyl)acetamide]
24 | > 6.30 | N#CCCc1ccccc1Oc1ccccc1CCC(=O)N1CCNC[C@H]1Cc1ccccc1 [Example 66, (R)-3-(2-(2-(3-(2-benzylpiperazin-1-yl)-3-oxopropyl)phenoxy)phenyl)propanenitrile]
25 | > 6.30 | CC(=O)NCc1cc(C)ccc1Oc1ccc(C)cc1CCC(=O)N1CCNC[C@H]1Cc1ccccc1 [Example 43, (R)—N-(2-(2-(3-(2-benzylpiperazin-1-yl)-3-oxopropyl)-4-methylphenoxy)-5-methylbenzyl)acetamide]
26 | > 6.30 | COC(=O)COc1ccc(C[C@@H]2CNCCN2C(=O)CCc2ccccc2Cc2ccccc2CCNC(C)=O)cc1 [Example 92, (R)-Methyl 2-(4-((1-(3-(2-(2-(2-acetamidoethyl)benzyl)phenyl)propanoyl)piperazin-2-yl)methyl)phenoxy)acetate]
27 | > 6.30 | CC(=O)NCCc1ccccc1Cc1ccccc1CCC(=O)N1CCNC[C@H]1Cc1ccc(O)cc1 [Example 88, (R)—N-(2-(2-(3-(2-(4-hydroxybenzyl)piperazin-1-yl)-3-oxopropyl)benzyl)phenethyl)acetamide]
28 | > 6.30 | CC(=O)NCCc1ccccc1Oc1ccc(C)cc1CCC(=O)N1CCNC[C@H]1Cc1ccccc1 [Example 26, (R)—N-(2-(2-(3-(2-Benzylpiperazin-1-yl)-3-oxopropyl)-4-methylphenoxy)phenethyl)acetamide]
29 | > 6.30 | CC(=O)NCCc1ccccc1Oc1ccccc1CCC(=O)N1CCNC[C@H]1Cc1ccccc1 [Example 24, (R)—N-(2-(2-(3-(2-Benzylpiperazin-1-yl)-3-oxopropyl)phenoxy)phenethyl)acetamide]
30 | > 6.30 | CC(=O)NCCc1ccccc1Cc1ccccc1CCC(=O)N1CCNC[C@H]1Cc1ccc(OCC(=O)O)cc1 [Example 90, (R)-2-(4-((1-(3-(2-(2-(2-acetamidoethyl)benzyl)phenyl)propanoyl)piperazin-2-yl)methyl)phenoxy)acetic acid]
31 | > 6.30 | CC(=O)NCc1cc(C)ccc1Oc1ccccc1CCC(=O)N1CCNC[C@H]1Cc1ccccc1 [Example 40, (R)—N-(2-(2-(3-(2-benzylpiperazin-1-yl)-3-oxopropyl)phenoxy)-5-methylbenzyl)acetamide]
32 | > 6.30 | CC1(C)CC(C(CC(=O)N2CCNC[C@H]2Cc2ccccc2)c2ccccc2)CCO1 (stereo partly drawn) [Example 61, 1-((R)-2-benzylpiperazin-1-yl)-3-(2,2-dimethyltetrahydro-2H-pyran-4-yl)-3-phenylpropan-1-one]
